Consider one compound from PMC4965013, “Open Source Drug Discovery with the Malaria Box Compound Collection for Neglected Diseases and Beyond” (PLoS Pathogens, 2016).

The term EC50 denotes the concentration giving half of the maximal effect. One may read the inhibition as the change of the read-out against control, counted positive when it falls.

Read-outs that look alike come from different tables or passages of the source.

Assay [1] has as its system Leishmania infantum MHOM/MA/BE/67. As to conditions: ref [84]; read-out: Leishmania infantum EC50 intracellular amastigotes in primary macrophages; cited from earlier work.
The test system of assay [2] is Mycobacterium marinum in Acanthamoeba castellanii. Put plainly: A. castellanii-M. marinum infection assay. As to conditions: 10µM. In kind it is cell-based. On the procedure: Columns FA-FC: Soldati Group (data presented first in this paper). M. marinum, D. discoideum, and Acathamoeba castellani assays. Each compound of the Malaria Box has been assayed at 10 µM in all three assays. First, the antibiotic activity was assayed directly against Mycobacterium marinum in its culture medium. Second, the toxicity and growth inhibitory effect of the compounds was assayed against the amoeba Dictyostelium discoideum in its culture medium. Finally, the “in cellulo” anti-infective activity of each compound was tested using the intracellular infection system Acanthamoeba castellanii-M. marinum. Values have been normalized using the DMSO carrier. For each assay, values have been normalized to 1.00 using the DMSO carrier, which has no detectable effect on D. discoideum nor M. marinum growth, while rifabutin was used as positive control for the antibiotic assay and the infection assay, as it abolishes M. marinum growth (normalized value under 0.10) in broth at 10 µM and intracellularly at 30 µM [150].

The subject of assay [3] is S. mansoni newly transformed schistosomula (NTS). On the set-up: method as in ref [91] (a number printed in a supplementary file, which may have a reference list of its own: not looked up in the article's list). As to conditions: ref [91]; read-out: Schistosoma mansoni newly transformed schistosomula EC50 J. Keiser; cited from earlier work.
Assay [4] has as its system Haemonchus contortus. Nature of the assay: Haemonchus contortus Scynexis. The class given is cell-based. Conditions: 10µM.
Assay [5] concerns P. falciparum NF54Pfs16 gametocytes stage I-III. As to conditions: ref [61], cited from earlier work.
In assay [6] the test system is B. caballi (USDA). Nature of the assay: B. caballi fluorescence-based growth assay. Conditions: Babesia caballi. In kind it is cell-based.
The test system of assay [7] is Leishmania donovani axenic amastigotes. Nature of the assay: L. donovani axenic amastigotes Scynexis. The class given is cell-based.
Assay [8] has as its system B. bovis (Texas strain). Put plainly: B. bovis fluorescence-based growth assay. As to conditions: Babesia bovis, in Bos taurus. The class given is cell-based.
Assay [9] deals with B. bigemina (Argentine strain). Put plainly: B. bigemina fluorescence-based growth assay. As to conditions: Babesia bigemina. In kind it is cell-based.
The subject of assay [10] is P. falciparum NF54 late-stage gametocytes. As to conditions: 5 µM; ref [55]; cited from earlier work.
In assay [11] the test system is P. falciparum Stage V male and female gametocytes. On the set-up: method as in ref [74] (a number printed in a supplementary file, which may have a reference list of its own: not looked up in the article's list). As to conditions: 1µM; ref [74]; cited from earlier work.
Assay [12] has as its system T. equi (USDA strain). Put plainly: T. equi fluorescence-based growth assay. The class given is cell-based. As to conditions: Theileria equi.
Assay [13] relates to P. berghei liver stages in HepG2. Nature of the assay: P. berghei liver stage luciferase Hanson. The class given is cell-based. Conditions: Plasmodium berghei, read-out: P. berghei Liver Stage % of control infection (Luciferase). The protocol: Columns AS-AT: Hanson group (data presented first in this paper). P. berghei liver stage growth. Phenotypic analysis of Malaria Box compound activity against P. berghei liver stages and assay development will be reported elsewhere (Medina Vera, Itoe, et al; in preparation). Methods: Screening was carried out in 96 well plates, with 10,000 HepG2 cells (ATCC) seeded one day prior to infection with 10,000 P. berghei-Luciferase (676m1cl1) sporozoites per well in the presence of 1:300 Fungizone (Life Technologies). Medium was replaced 2 hours post-infection (hpi) and the Malaria Box compounds were added at a final concentration of 5 µM at this time. At 48 hpi, parasite load, by way of luminescence, was quantified after a 10 minute incubation with 50 µl of 150 µg/ml D-Luciferin on a Tecan Infinite M200 plate reader. Plates included 8 wells of DMSO (compound vehicle and positive control for infection), along with 8 non-infected wells serving as negative controls. Luminescence values for individual wells were normalized to the mean of the in-plate DMSO controls, which was set at 100. […] The normalized mean of non-infected control wells was 2.5, with a standard deviation of 2. Data presented are the average of 3 independent experiments, each conducted in technical triplicate. Toxicity of the compounds was determined at 66 hpi based on HepG2 cell abundance in 9 non-overlapping images per well, generated with a Molecular Devices IXM using a 40x objective. Briefly, EEFs were identified based on 2E6 immunolabeling and used to mask widefield images of Hoechst 33452-labeled nuclei, and the percentage of each 2,160 x 2,160 pixel image occupied by Hoechst^+ pixels, representing HepG2 nuclei only, was then determined for all images in CellProfiler. Data is from one representative experiment. The mean area occupied by HepG2 nuclei in the 8 DMSO controls wells was set to 1, and used to normalize those treated with compounds.

In assay [14] the test system is P. falciparum 3D7A stage V gametocytes, female gamete formation. Details: method as in ref [73] (a number printed in a supplementary file, which may have a reference list of its own: not looked up in the article's list). As to conditions: 5µM; ref [73]; cited from earlier work.
Assay [15] relates to P. falciparum NF54 gametocytes. Details: method as in ref [72] (a number printed in a supplementary file, which may have a reference list of its own: not looked up in the article's list). Conditions: 10µM; ref [72]; cited from earlier work.
In assay [16] the test system is HIV-1 JR-FL or HIV-1 NL4-3 viruses. Nature of the assay: HIV-1 viral production p24 ELISA. The class given is cell-based. On the procedure: Columns FK-GB, Moore group (data presented first in this paper). HIV and HIV-producing cell lines, toxicity and viral suppression. […] MMV compounds were incubated with HIV-1 JR-FL or HIV-1 NL4-3 pseudoviruses and U87-CD4-CCR5 or U87-CD4-CXCR4 cells (obtained through the NIH AIDS Reagent Program, Division of AIDS, NIAID, NIH: U87 CD4+CCR5+ Cells from Dr. HongKui Deng and Dr. Dan R. Littman) respectively for 3 days. Cells were assayed for infection by luciferase production (Bright-Glo Luciferase Substrate, Promega) and cell viability by MTT assay. […] MMV compounds were next incubated with HIV-1 JR-FL or HIV-1 NL4-3 viruses and U87-CD4-CCR5 or U87-CD4-CXCR4 cells respectively for 7 days. Cell supernatants were assayed for viral production by p24 ELISA [153] and cell viability by MTT assay. […] DMSO (5%) was completely toxic to all cells (based on visual inspection) and served as the positive control for MTT assays.

In the case of `CCOC(=O)c1cnc2ccc(OC)cc2c1NCc1ccccc1` [MMV665813], the EC50 in assay [1] is 10.1 µM; in assay [3], more than 33.3 µM; in assay [6], 5.9 µM; in assay [8], 0.72 µM; in [9], 1 µM; in assay [12] it was 14.1 µM. In addition, the “Mycobacterium marinum growth in Acanthamoeba castellanii DMSO=1 Infection Assay” value in assay [2] was 1.26. The “Haemonchus contortus 96hr % dead” value in assay [4] is reported as 1%. The “gametocyte early stage (I-III) luciferase % inhibition” value is listed as -13% in [5] (0.5µM), -10% in assay [5] (2.5µM) and -8% in assay [5] (5µM). In addition, the inhibition at 5 µM in assay [7] was 52%; in assay [16] (Human immunodeficiency virus 1, NL43, read-out: HIV R5 % inhibition rep3 in U87 (P24 NO Washout)), -50%; in assay [16] (Human immunodeficiency virus 1, NL43, read-out: HIV R5 % inhibition rep3 in U87 (P24 Washout)), -13%; in [16] (Human immunodeficiency virus 1, NL43, read-out: HIV X4 % inhibition rep3 in U87 (P24 NO Washout)), 20%; in assay [16] (Human immunodeficiency virus 1, NL43, read-out: HIV X4 %inhibition rep3 in U87 (P24 Washout)), 16%. In addition, the “gametocyte NF54 late stage (IV-V) % inhibition Cassera” value in assay [10] is reported as 36%. Besides, the “Male gametocyte Stage V % inhibition of gamete formation” value in assay [11] is listed as -13%. In addition, in [11], the “female gametocyte Stage V % inhibition of gamete formation” value was -41%. The activity at 5 µM in assay [13] came to 66%. Further, in [14], the “3D7A female gamete formation acridine orange % inhibition” value is given as -11%. In [15], the “gametocyte stage IV-V SYBR Green % inhibition” value is reported as 61%.
